Measured values published in patent US12458609B2 (The General Hospital Corporation, priority 2018, dated 2025).

Legend:
[1] = in humans; cited from earlier work
[2] = system: rats sedated with DEX; test: Recovery of consciousness (righting reflex) in rats sedated with DEX; format: in vivo; conditions: 8 rats, crossover; DEX 50 micrograms/kg IV over 10 min; 5 min later dextroamphetamine 3 mg/kg IV over 2 min; saline mean 92 minutes; p<0.01
Description: A randomized, blinded, crossover design was used with 8 rats. […] This difference was statistically significant (p<0.01).

[3] = system: rats sedated with DEX; test: LFP spectrogram and electromyogram analysis in rats sedated with DEX; format: in vivo; conditions: infusion after DEX infusion; FIG. 3 bottom panel
Description: Spectrograms were constructed from continuous LFP recordings from the prefrontal cortex of rats. In these figures, spectral power (dB) at a given frequency (Hz) is represented by color and plotted over time.

[4] = system: rats anesthetized with ketamine; test: Recovery of consciousness after ketamine anesthesia in rats; format: in vivo; conditions: 8 rats, crossover; ketamine 50 mg/kg IV over 10 min; 5 min later dextroamphetamine 3 mg/kg IV over 2 min; saline mean 6.3 minutes; p<0.05
Procedure: A randomized, blinded, crossover design was used with 8 rats. After intravenous administration of ketamine (50 mg/kg IV) over 10 minutes, all rats became unconscious. […] The difference was statistically significant (p<0.05).

[5] = system: rat sedated with DEX; test: Quadrant crossings in the cage after dexmedetomidine sedation (single rat); format: in vivo
Procedure: The data provided is from a single rat that underwent 3 experiments, with 3-4 days of rest between each session. FIG. 5 is a schematic of the experimental Design.
The rat received an intravenous infusion of dexmedetomidine (DEX, 50 mcg/kg) over 10 minutes, followed by a 5-minute rest period to switch medications. […] Note that 7.4 mg/kg of LDX is enzymatically cleaved to slowly release a total of 2.2 mg/kg of d-AMPH.
The cage was divided into 4 quadrants, and the number of times the rat crossed from one quadrant to another was recorded. Each data point represents the number of quadrant crossings in the cage during the preceding 15 minutes. […] By adjusting the relative doses of d-AMPH and LDX, a combination of these two drugs provided continuous, long-lasting reversal of DEX sedation, without the adverse side effects of administering a larger dose of d-AMPH, e.g., hyperactivity and large increases in heart rate and blood pressure.

[6] = system: rats under propofol and sevoflurane anesthesia; conditions: Kenny et al., PLoS ONE 2015; cited from earlier work

| Structure (SMILES) | half-life [1] | mean time to regain consciousness [2] | low-frequency LFP power, consciousness and EMG activity [3] | mean time to recovery of consciousness after ketamine [4] | reversal of DEX sedation (movement, quadrant crossings) ([5]; DEX 50 mcg/kg IV over 10 min, d-AMPH 0.8 mg/kg alone, 2-minute IV infusion, FIG. 6) | time after which re-sedation occurred ([5]; DEX 50 mcg/kg IV, d-AMPH 0.8 mg/kg IV alone) | reversal of general anesthesia [6] |
| --- | --- | --- | --- | --- | --- | --- | --- |
| Cc1cccc([C@H](C)c2cnc[nH]2)c1C [DEX, Dexmedetomidine] | approximately 2 hours |  |  |  |  |  |  |
| C[C@H](N)Cc1ccccc1 [dextroamphetamine] |  | 1.7 min | rapidly decreased low-frequency LFP power, which coincided with return of consciousness (ROC) and increased EMG activity | 11.6 min | initially woke up and moved around | 30 min | reverse propofol and sevoflurane anesthesia |
